These results are taken from patent publication US20010041708A1, “Compositions for preventing cellulite in mammalian skin” (Zen-Bio, Inc., priority 2000, published 2001).

Where “and” joins values, the source holds several entries; their conditions need not be identical. Identical values can stand only once.

In experiment [1] the test system is differentiated human adipocytes. Nature of the experiment: Lipolysis measurement (glycerol release) in day 21 differentiated human adipocytes. As to conditions: 3 hrs.
Experiment [2] concerns cultures of abdominal adipocytes. Nature of the experiment: Lipolysis assay (glycerol release), abdominal adipocytes. Type of experiment: cell-based, human. Particulars: Exp. 5b; 1 uM, 5 h, day 18, abdominal. How it is done: (§1) Subsequently, tissue was minced and enzymatically digested for 45 min in a Krebs-Ringer buffer containing 1 mg/mL collagenase (CLS-1, Worthington Biochemical Corp, Lakewood, N.J.), 15 mg/mL bovine serum albumin (BSA), 5 mM glucose and 100 mM HEPES (pH 7.4). Digestion was carried out at a 5 mL/1 g ratio (digestion solution: tissue mass). The digesta was then filtered through 200- and 60-micron mesh and pelleted at 600×g for 5 min. The SV cells were resuspended in a RBC lysis buffer for 10 min and then filtered and recentrifuged to remove contaminating […]. […] SV cells were grown to 80% confluency and then cryopreserved in liquid nitrogen in aliquots (2×10^6 cells/mL). In Experiment 5b, basal lipolysis was measured on day 18 of differentiation after the cultures had been treated with fatty acids for 5 h. […] Lipolysis was determined by measuring free and esterified glycerol release into the media following acute (5 h) treatment. […] On day 17 of differentiation, cultures were grown in basal adipocyte media (adipocyte media minus insulin and DEX). […] A set of vehicle controls contained 0.1% DMSO. One hundred microliters of conditioned media was removed from each well, and lipolytic rate determined by quantifying the amount of free glycerol and esterified glycerol in each sample using Sigma's triglyceride kit (GPO-Trinder, Sigma Chemical Co.).

The test system of experiment [3] is cultures of thigh adipocytes. Nature of the experiment: Lipolysis assay (glycerol release), thigh adipocytes. Type of experiment: cell-based, human. Particulars: Exp. 5b; 1 uM, 5 h, day 18, thigh. The procedure:
as §1

Experiment [4] has as its system 3T3-L1 preadipocytes. Nature of the experiment: Morphological changes (apoptosis-like) in CLA-treated cultures. Type of experiment: cell-based, murine. As to conditions: LA supplementation of trans-10, cis-12 CLA-treated cultures.
A further experiment relates to aP2. The experiment can be described thus: aP2 protein expression in 3T3-L1 preadipocytes. Type of experiment: cell-based, murine. As to conditions: after 6 d of treatment.
Experiment [5] deals with 3T3-L1 preadipocytes. Nature of the experiment: TG content of 3T3-L1 preadipocytes. Particulars: LA supplementation of CLA-treated cultures. Type of experiment: cell-based, murine.
The test system of experiment [6] is stromal vascular (SV) cells from human adipose tissue. The experiment can be described thus: Triglyceride (TG) content of differentiating primary cultures of SV cells. Type of experiment: cell-based. Particulars: for TG content, dose response: Exp. 3, 1, 3, 10, 30 uM; for More TG content than cultures treated with 10 uM trans-10, cis-12 CLA alone: Exp. 4. The procedure: Abdominal adipose tissue (Exp. 1-5) and thigh adipose tissue (Exp. 5b) were obtained from middle-aged females with body mass indexes <30.0 during liposuction or elective surgery. Subsequently, tissue was minced and enzymatically digested for 45 min in a Krebs-Ringer buffer containing 1 mg/mL collagenase (CLS-1, Worthington Biochemical Corp, Lakewood, N.J.), 15 mg/mL bovine serum albumin (BSA), 5 mM glucose and 100 mM HEPES (pH 7.4). Digestion was carried out at a 5 mL/1 g ratio (digestion solution: tissue mass). The digesta was then filtered through 200- and 60-micron mesh and pelleted at 600×g for 5 min. The SV cells were resuspended in a RBC lysis buffer for 10 min and then filtered and recentrifuged to remove contaminating […]. Cultures of SV cells were grown in proliferation medium containing 90% DME/Ham's F-10 (1:1, v/v), 10% (v/v) fetal bovine serum (FBS), 15 mM HEPES (pH 7.4), 60 U/mL penicillin, 60 U/mL streptomycin, and 25 ug/mL fungizone. Cultures were incubated at 37° C. in a humidified […]:CO2 (90:10%) atmosphere. SV cells were grown to 80% confluency and then cryopreserved in liquid nitrogen in aliquots (2×10^6 cells/mL).
Cryopreserved aliquots were subsequently thawed, seeded in T-150 flasks (e.g., 1 vial per 2 T-150 flasks), and grown in proliferation media until 80% confluent. At this time the cells were removed via trypsinization, seeded (3×10^4/cm^2, except for Exp. 1) in 24-well or 96-well (Exp. 5b) Falcon dishes, and allowed to attach for 24 h in proliferation medium. Following attachment, cultures were grown in differentiation medium for the next 3 d which contained DME/Ham's F-10 (1:1,v/v), 15 mM HEPES (pH 7.4), 33 uM biotin, 17 uM pantothenate, 100 nM human insulin, 1 uM dexamethasone (DEX), 60 U/mL penicillin, 60 U/mL streptomycin, 25 ug/mL fungizone, 0.25 mM isobutylmethylxanthine (IBMX), and TZD (Exp. 1 & 2=BRL 49653; Exp. 3-5=Zen Bio's proprietary reagent). Thereafter, cultures were exposed to adipocyte medium consisting of 90% DME/Ham's F-10 (1:1,v/v), 15 mM HEPES (pH 7.4), 3% FBS (v/v), 33 uM biotin, 17 uM pantothenate, 100 nM human insulin, 1 uM DEX, 60 U/mL penicillin, 60 U/mL streptomycin, and 25 ug/mL fungizone. Adipocyte media was replaced every 3 d. […] After 18 day in culture, the majority of the cells contained visual lipid droplets.
(§2) Experiment 1 was designed to determine optimal culturing conditions during differentiation of primary cultures of SV cells isolated from human adipose tissue. Specifically, the experiment was designed to determine how seeding density and thiazolidinedione (TZD; PPARγ-agonist BRL 49653) concentration influenced TG content (ug/10^6cells). SV cells were seeded at increasing densities (2-, 3-, or 4×10^4/cm^2) in differentiation media containing 0, 1, or 10 uM TZD (BRL 49653) in this 3×3 factorial design. All cultures received the same adipocyte media after 3 d of differentiation. The cultures were harvested on day 11-12 of differentiation and TG content and cell number were measured. Another set of cultures was stained with Oil Red O and counterstained with Mayer's hematoxylin to assess cellular differentiation potential (n=3 per treatment combination).
In Experiment 2 the impact of linoleic acid and the trans-10, cis-12 isomer of CLA on TG accumulation in these cells was examined. SV cells were seeded at a density of 3×10^4/cm^2 and continuously treated with either 10 uM linoleic acid, 100 uM linoleic acid, 10 uM trans-10, cis-12 CLA, or 100 uM trans-10, cis-12 CLA, and grown under our normal differentiation protocol. One set of control cultures contained only vehicle (BSA) and another contained vehicle plus TZD (BRL 49653). TG content and cell number were measured on day 11 of differentiation.
The objective of Experiment 3 was to evaluate the dose response of trans-10, cis-12 CLA, cis-9, trans-11 CLA, and linoleic acid on TG content of the cultures. […]

In experiment [7] the test system is 3T3-L1 preadipocytes. The experiment can be described thus: Cell number of treated 3T3-L1 cultures. Particulars: data not shown. Type of experiment: cell-based, murine.
In the next experiment the test system is PPARγ2. Nature of the experiment: PPARγ2 protein expression in 3T3-L1 preadipocytes. Type of experiment: cell-based, murine.
For experiment [8], the system named is stromal vascular (SV) cells from human adipose tissue. Nature of the experiment: De novo lipogenesis (14C-glucose incorporation into cellular lipid). Type of experiment: cell-based. Particulars: Exp. 5a; 3, 10, 30 uM, day 12. How it is done: Experiments 5a and 5b were designed to determine if the trans-10, cis-12 CLA-mediated reduction in TG content was due to decreased lipogenesis and/or increased lipolysis. In Experiment 5a (lipogenesis), SV cells were seeded at a density of 3×10^4/cm^2 and continuously treated with increasing concentrations (3, 10, or 30 uM) of either linoleic acid, cis-9, tran-11 CLA, or trans-10, cis-12 CLA. A set of control cultures received vehicle (BSA) plus TZD. All cultures received differentiation media (days 1-3), adipocyte media (days 4-9), and low-glucose (˜5 mM) adipocyte media (days 10-12) prior to measuring de novo lipogenesis. On day 12, ^14C-labeled glucose incorporation into the lipid fraction of the cultures was measured for 2 h and, following lipid extraction, the radioactivity in the lipid fraction was determined by scintillation counting. Time course data (not shown) indicated a linear increase in radiolabeled glucose incorporation into lipid over 2 h.
Incorporation of ^14C-glucose into cellular lipid was determined on day 12 of differentiation in cultures chronically treated with fatty acids or vehicle. Following the addition of fatty acids and low glucose (˜5 mM) medium to the cultures on day 12, 1.0 μCi [U-^14C]-glucose ([U-^14C]-D-glucose; SA ˜250 mCi/mmol, ICN, Costa Mesa, Calif.)/mL medium was added to the cultures for 2 h. Our time course study (data not shown) indicated a linear increase in radiolabeled glucose incorporation into lipid over a 2 h period. After 2 h, media containing unincorporated ^14C-glucose was immediately removed and the cultures were washed with 1 mL HBSS to remove unincorporated ^14C-glucose. An additional 1 mL of HBSS was added and, after vigorous tritaration, cells were transferred to glass vials. Five milliliters of a chloroform:methanol (2:1) solution was added to each vial and they were vortexed for 1 min. All samples were then centrifuged for 5 min at 1000×g to further separate the hydrophobic and hydrophilic phases. The lower hydrophobic phase was removed from the tubes and dried under nitrogen at 40° C. Five milliliters of scintillation cocktail (Scinti Verse, Fisher Scientific, Norcross, Ga.) was added to each sample, and the ^14C content was determined by liquid scintillation counting on a Beckman LS 6000 Scintillation Counter (Beckman Instruments, Palo Atlo, Calif.). […] The radioactivity in the lipid fraction from these cultures was subtracted from the total counts. Cell numbers were determined from parallel treatment groups in separate culture dishes at the time of radioisotope addition to the medium. Therefore, mean ^14C-glucose incorporation is expressed as cpm/10^6 cells.

Experiment [9] deals with 3T3-L1 preadipocytes. The experiment can be described thus: Fatty acid composition of neutral and phospholipid fractions of treated cultures. Type of experiment: cell-based, murine.
In experiment [10] the test system is stromal vascular (SV) cells from human adipose tissue. The experiment can be described thus: Percentage of cells differentiated into adipocytes (Oil Red O staining). Type of experiment: cell-based. Particulars: Exp. 1, seeding density 4×10^4. How it is done:
as §2
The presence of intracellular lipid was visualized by staining cultures with Oil Red O as previously described for human SV cultures (McIntosh et al. (1999) Int. J. Obesity 23:595-602). […] Counterstaining allows for quantifying the percentage of cells that have undergone differentiation (e.g., […]). […]

Regarding `CC(C)NCC(O)c1ccc(O)c(O)c1` (stereo not drawn) [Isoproterenal], in experiment [1] (0.00002 % (wt./volume)), the “Lipolysis, fold increase over control” value is listed as 3.4 fold. In addition, the Stimulation of lipolysis entry in [2] is “approximately 2.5 fold”; in [3], around 1.5 fold.
For the compound `CCCCC/C=C\C/C=C\CCCCCCCC(=O)O` [linoleic acid, 9 cis, 12 cis-octadecadienoic acid], the CLA-induced morphological changes result with 3T3-L1 preadipocytes [4] is listed as “inhibited the CLA-induced morphological changes in a dose-dependent manner”. The aP2 protein expression result in the experiment with aP2 is reported as “decreased”. The “TG content, concurrent linoleic acid with trans-10, cis-12 CLA” value in the experiment on 3T3-L1 preadipocytes [5] is “able to prevent the TG-lowering effects of trans-10, cis-12 CLA”. For the same compound, the “TG content vs other treatments / TZD treated vehicle controls” value in experiment [6] (Exp. 2, 100 uM, continuous treatment, day 11) was “highest TG content”. In addition, the “TG content, dose response” value in [6] (day 11) is “increased in a dose dependent fashion”. The “More TG content than cultures treated with 10 uM trans-10, cis-12 CLA alone” value in experiment [6] (10 uM linoleic acid added to 10 uM trans-10, cis-12 CLA) is reported as 26%; in experiment [6] (30 uM linoleic acid added to 10 uM trans-10, cis-12 CLA) it was 55%; in experiment [6] (100 uM linoleic acid added to 10 uM trans-10, cis-12 CLA), 64%. Further, the Cell number entry in the experiment on 3T3-L1 preadipocytes [7] is on record as “increased cell number”. Moreover, the “PPARγ2 protein levels, concurrent LA and trans-10, cis-12 CLA vs CLA alone” value in the experiment with PPARγ2 (6 d) is reported as “increased PPARγ2 protein levels”. Besides, the PPARγ2 protein expression entry in the experiment with PPARγ2 (after 6 d of treatment) is listed as “decreased”. Further, the “PPARγ2 protein expression compared to BSA controls” value in the experiment with PPARγ2 (day 2 of differentiation) was “reduced PPARγ2 protein expression”. Besides, in [8], the “Incorporation of 14C-glucose into cellular lipid per 10^6 cells, dose response” value is reported as “neither linoleic acid nor trans-9, cis-11 CLA influenced de novo lipogenesis”.
Turning to `Cn1c(=O)c2c(ncn2C)n(C)c1=O` [Caffeine], in experiment [1] (0.1 % (wt./volume)), the “Lipolysis, fold increase over control” value is 2.4 fold and 4.2 fold.
Turning to `CCCCCC/C=C/C=C\CCCCCCCC(=O)O` [cis-9, trans-11 CLA], the “TG content, dose response” value in experiment [6] (day 11) is “increased in a dose dependent fashion”. Further, in experiment [8], the “Incorporation of 14C-glucose into cellular lipid per 10^6 cells, dose response” value is reported as “neither linoleic acid nor trans-9, cis-11 CLA influenced de novo lipogenesis”. Besides, the “Abundance in lipid fractions relative to trans-10, cis-12 isomer” value with 3T3-L1 preadipocytes [9] is 1-2 fold. In the experiment on 3T3-L1 preadipocytes [9] (neutral and phospholipid fractions), the “Incorporation into cellular lipid fractions” value is “incorporated into the neutral and phospholipid fractions”.
On to `Cn1c(=O)c2[nH]cnc2n(C)c1=O` [Theophylline], for which the “Lipolysis, fold increase over control” value in experiment [1] (0.01 % (wt./volume)) is 0.8 fold; in [1] (0.05 % (wt./volume)), 1.9 fold; in [1] (0.1 % (wt./volume)) it was 3.1 fold.
Regarding `CN(CCOc1ccc(CC2SC(=O)NC2=O)cc1)c1ccccn1` (stereo not drawn) [BRL 49653], the “TG content, fold greater than similarly seeded cultures without BRL 49653” value in [6] (Exp. 1, 10 uM, seeded at 4×10^4 cells/cm^2) was determined as 10 fold. The entries for the “Percentage of cells that differentiated” value in [10] (1 uM TZD) and in experiment [10] (10 uM TZD) were 50% and 47%, respectively.
